This is an account of results in patent publication EP2951180B1, “2,6,7,8 SUBSTITUTED PURINES AS HDM2 INHIBITORS” (Merck Sharp & Dohme Corp., priority 2013, dated 2014).

Where two headings read alike, the source gives them in different places.

The test addresses T1, HDM2 (Homo sapiens, UniProt Q00987).
T1 construct: Thioredoxin (N); made in house; host or cells: E. coli strain BL21(DE3)Rosetta
Description: HDM2 FRET assay (inhibition of binding of FITC labeled p53-pocket peptide to HDM2). The following applies: for IC50: read-out: FRET IC50. In a few lines: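 TR-FRET with 0.5 nM His-tagged recombinant HDM2, 3 nM FITC-labelled p53 peptide and 0.25 nM Tb-anti-His antibody in PBS, 0.01% BSA, 0.01% Tween-20, 0.1% DMSO. IC50 from em520/em495 ratio over 10-point dilutions, 4-parameter logistic fit.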

Setting [1] is: 0.5 nM HDM2 (residues 17 to 125), 3nM peptide, two hour incubation at room temperature.

T1 sequence (Q00987 17-125): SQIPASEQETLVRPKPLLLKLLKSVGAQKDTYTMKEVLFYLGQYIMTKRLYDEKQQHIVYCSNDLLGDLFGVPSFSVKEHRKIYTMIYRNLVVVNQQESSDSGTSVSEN

In the case of `CC(C)c1cc(-c2nc3nc(-c4noc(=O)[nH]4)nc(N[C@H](C)C4CCC4)c3n2C[C@H]2CC[C@H](C)CC2)ncc1F` [Example 15.10, 3-(6-(((R)-1-cyclobutylethyl)amino)-8-(5-fluoro-4-isopropylpyridin-2-yl)-7-((trans-4-methylcyclohexyl)methyl)-7H-purin-2-yl)-1,2,4-oxadiazol-5(4H)-one], the IC50 (in general, the midpoint of a concentration-inhibition curve) under setting [1] was 11.8 nM.
Consider `CC(C)CC1CCCCN1c1nc2nc(-c3noc(=O)[nH]3)nc(N[C@H](C)C3CCC3)c2n1C[C@H]1CC[C@H](C)CC1` (stereo partly drawn) [Example 11.3, 3-(6-(((R)-1-cyclobutylethyl)amino)-8-(2-isobutylpiperidin-1-yl)-7-((trans-4-methylcyclohexyl)methyl)-7H-purine-2-yl)-1,2,4-oxadiazol-5(4H)-one], for which, under “Table 11”, the IC50 was 6.14 nM.
With `C[C@@H](Nc1nc(-c2noc(=O)[nH]2)nc2nc(N(C)CC3CCCN(C)C3)n(Cc3ccc(C(F)(F)F)cc3)c12)C1CCC1` (stereo partly drawn) [Example 9.99], the IC50 (Table 9) was found to be 45 nM.
With `Cc1cccc(-c2nc3nc(C(=O)O)nc(N[C@H](CCC(=O)NCCO)C4CCC4)c3n2Cc2ccc(C(F)(F)F)cc2)c1` [Example 7.7, 6-({(1R)-1-cyclobutyl-4-[(2-hydroxyethyl)amino]-4-oxobutyl}amino)-8-(3-methylphenyl)-7-[4-(trifluoromethyl)benzyl]-7H-purine-2-carboxylic acid], the IC50 (Table 7) came out at 832 nM.
In the case of `CC(c1nc2nc(-c3noc(=O)[nH]3)nc(N[C@H](C)C3CCC3)c2n1C[C@H]1CC[C@H](C)CC1)C1CCOCC1` (stereo partly drawn) [Example 21.21, 3-(6-{[(1R)-1-cyclobutylethyl]amino}-7-[(trans-4-methylcyclohexyl)methyl]-8-[1-(tetrahydro-2H-pyran-4-yl)ethyl]-7H-purin-2-yl)-1,2,4-oxadiazol-5(4H)-one], for the setting “Table 21”, the IC50 amounted to 7.17 nM.
`Cc1cc(C)n(-c2nc3nc(C(=O)O)nc(N[C@H](C)C4CCC4)c3n2Cc2ccc(C(F)(F)F)cc2)n1` [Example 9.59, 6-{[(1R)-1-cyclobutylethyl]amino}-8-(3,5-dimethyl-1H-pyrazol-1-yl)-7-[4-(trifluoromethyl)benzyl]-7H-purine-2-carboxylic acid]: the IC50 (Table 9) stood at 292 nM.
As to `CC(C)c1ccnc(-c2nc3nc(CN)nc(N[C@H](C)C4CCC4)c3n2C[C@H]2CC[C@H](C)CC2)c1` [Example 12.4, 2-(aminomethyl)-N-[(1R)-1-cyclobutylethyl]-7-[(trans-4-methylcyclohexyl)methyl]-8-[4-(propan-2-yl)pyridin-2-yl]-7H-purine-6-amine], the inhibition at 1 µM (read-out: % inh. at 1000 nM, at 1000 nM compound) was 39%.
In the case of `C[C@@H](Nc1nc(-c2noc(=O)[nH]2)nc2nc(C3OCc4ccccc43)n(C[C@H]3CC[C@H](C)CC3)c12)C1CCC1` (stereo partly drawn) [Example 22.80, 3-(6-{[(1R)-1-cyclobutylethyl]amino}-8-(1,3-dihydro-2-benzofuran-1-yl)-7-[(trans-4-methylcyclohexyl)methyl]-7H-purin-2-yl)-1,2,4-oxadiazol-5(4H)-one], the IC50 (Table 22) was 2.47 nM.
For the compound `CC([C@H]1CC[C@H](C)CC1)n1c(N2CCOC3CCCC32)nc2nc(-c3n[nH]c(=O)o3)nc(N[C@H](C)C3CCC3)c21` (stereo partly drawn) [Example 18.44, 5-(6-{ [(1R)-1-cyclobutylethyl]amino}-8-(hexahydrocyclopenta[b] [1,4]oxazin-4(4aH)-yl)-7-[1-(trans-4-methylcyclohexyl)ethyl]-7H-purin-2-yl)-1,3,4-oxadiazol-2(3H)-one], for the setting “Table 18”, the IC50 stood at 5.37 nM.
Turning to `Cc1nc(C2(c3nc4nc(-c5noc(=O)[nH]5)nc(N[C@H](C)C5CCC5)c4n3C[C@H]3CC[C@H](C)CC3)CC2)c(C)s1` [Example 22.72, 3-(6-{[(1R)-1-cyclobutylethyl]amino}-8-[1-(2,5-dimethyl-1,3-thiazol-4-yl)cyclopropyl]-7-[(trans-4-methylcyclohexyl)methyl] -7H-purin-2-yl)-1,2,4-oxadiazol-5(4H)-one], the IC50 (Table 22) turned out to be 3.04 nM.
As for `COC(c1ccccc1)c1nc2nc(-c3noc(=O)[nH]3)nc(N[C@H](C)C3CCC3)c2n1C[C@H]1CC[C@H](C)CC1` (single isomer, unassigned) [Example 22.20, 3-(6-{[(1R)-1-cyclobutylethyl]amino}-8-[(S or R)-methoxy(phenyl)methyl]-7-[(trans-4-methylcyclohexyl)methyl]-7H-purin-2-yl)-1,2,4-oxadiazol-5(4H)-one], the IC50 (Table 22) was 1.5 nM.
In the case of `C[C@@H](Nc1nc(C(=O)O)nc2nc(N3CCCC4CCCCC43)n(C[C@H]3CC[C@H](C)CC3)c12)C1CCC1` (stereo partly drawn) [Example 11.23, 6-{[(1R)-1-cyclobutylethyl]amino}-7-[(trans-4-methylcyclohexyl)methyl]-8-(octahydroquinolin-1(2H)-yl)-7H-purine-2-carboxylic acid], the IC50 (Table 11) came out at 3.11 nM.
As to `C[C@@H](Nc1nc(-c2noc(=O)[nH]2)nc2nc(N(C)CCc3ccccc3)n(Cc3ccc(C(F)(F)F)cc3)c12)C1CCC1` [Example 9.94, 3-(6-{[(1R)-1-cyclobutylethyl]amino}-8-[methyl(2-phenylethyl)amino]-7-[4-(trifluoromethyl)benzyl]-7H-purin-2-yl)-1,2,4-oxadiazol-5(4H)-one], where the note is “Table 9”, the IC50 is 96.7 nM.
Consider `CC(c1cccc(F)c1)N(C)c1nc2nc(-c3noc(=O)[nH]3)nc(N[C@H](C)C3CCC3)c2n1Cc1ccc(C(F)(F)F)c(F)c1` (stereo partly drawn) [Example 9.73, 3-(6-{[(1R)-1-cyclobutylethyl]amino}-8-{[1-(3-fluorophenyl)ethyl](methyl)amino}-7-[3-fluoro-4-(trifluoromethyl)benzyl]-7H-purin-2-yl)-1,2,4-oxadiazol-5(4H)-one], for which, under “Table 9”, the IC50 worked out at 16.2 nM.
Regarding `C[C@H]1CC[C@H](Cn2c(N3CCOC[C@H]3c3ccccc3)nc3nc(-c4noc(=O)[nH]4)nc(-c4cc(F)cc(Cl)c4)c32)CC1` [Example 16.20, 3-{6-(3-chloro-5-fluorophenyl)-7-[(trans-4-methylcyclohexyl)methyl]-8-[(3R)-3-phenylmorpholin-4-yl]-7H-purin-2-yl}-1,2,4-oxadiazol-5(4H)-one], the half-maximal inhibitory concentration (IC50) under setting [1] was 1.21 nM.
Consider `C[C@@H](Nc1nc(C(=O)O)nc2nc(COCc3ccccc3)n(Cc3ccc(C(F)(F)F)cc3)c12)C1CCC1` [Example 10.2, (R)-8-((benzyloxy)methyl)-6-((1-cyclobutylethyl)amino)-7-(4-(trifluoromethyl)benzyl)-7H-purine-2-carboxylic acid], for which, for the setting “Table 10”, the IC50 turned out to be 21.6 nM.
As to `CC(C)C[C@@H]1COCCN1c1nc2nc(-c3noc(=O)[nH]3)nc(-c3cccc(Cl)c3)c2n1C[C@H]1CC[C@H](C)CC1` [Example 16.40, 3-{6-(3-chlorophenyl)-7-[(trans-4-methylcyclohexyl)methyl]-8-[(3R)-3-(2-methylpropyl)morpholin-4-yl]-7H-purin-2-yl}-1,2,4-oxadiazol-5(4H)-one], under setting [1], the IC50 amounted to 4.59 nM.
Take `CCC1CCN(c2nc(C(=O)O)nc3nc(-c4cccc(C)c4)n(Cc4ccc(C(F)(F)F)cc4)c23)C1` (stereo not drawn) [Example 6.1, 6-(3-ethylpyrrolidin-1-yl)-8-(3-methylphenyl)-7-[4-(trifluoromethyl)benzyl]-7H-purine-2-carboxylic acid]: the inhibition at 1 µM (read-out: inh. at 1000 nM (FRET)) turned out to be 41%.
`C[C@@H](Nc1nc(C(C)(C)O)nc2nc(N3CCOC[C@H]3c3ccccc3)n(C[C@H]3CC[C@H](C)CC3)c12)C1CCC1` [Example 12.14, 2-(6-{[(1R)-1-cyclobutylethyl]amino}-7-[(trans-4-methylcyclohexyl)methyl]-8-[(3R)-3-phenylmorpholin-4-yl]-7H-purine-2-yl)propan-2-ol]: the IC50 under setting [1] was found to be 107 nM.
On to `C[C@@H](Nc1nc(-c2noc(=O)[nH]2)nc2nc(N3CCC[C@H]3C(F)(F)F)n(C[C@H]3CC[C@H](C)CC3)c12)C1CCC1` [Example 11.128, 3-(6-{[(1R)-1-cyclobutylethyl]amino}-7-[(trans-4-methylcyclohexyl)methyl]-8-[(2S)-2-(trifluoromethyl)pyrrolidin-1-yl]-7H-purin-2-yl)-1,2,4-oxadiazol-5(4H)-one], for which, where the note is “Table 11”, the IC50 is 0.642 nM.
For the compound `C[C@@H](CO)Nc1nc2nc(C(=O)O)nc(N[C@H](C)C3CCC3)c2n1Cc1ccc(C(F)(F)F)cc1` [Example 9.10, 6-{[(1R)-1-cyclobutylethyl]amino}-8-{[(1S)-2-hydroxy-1-methylethyl]amino}-7-[4-(trifluoromethyl)benzyl]-7H-purine-2-carboxylic acid], the IC50 (Table 9) was 85.9 nM.
Turning to `Cc1nc(C(C)Nc2nc3nc(-c4noc(=O)[nH]4)nc(N[C@H](C)C4CCC4)c3n2C[C@H]2CC[C@H](C)CC2)cs1` (stereo partly drawn) [Example 11.86, 3-(6-{[(1R)-1-cyclobutylethyl]amino}-7-[(trans-4-methylcyclohexyl)methyl]-8-{[1-(2-methyl-1,3-thiazol-4-yl)ethyl]amino} -7H-purin-2-yl)-1,2,4-oxadiazol-5(2H)-one], the IC50 (Table 11) turned out to be 3.39 nM.
`Cc1ccc(C2CCCCN2c2nc3nc(-c4noc(=O)[nH]4)nc(N[C@H](C)C4CCC4)c3n2C[C@H]2CC[C@H](C)CC2)o1` (stereo partly drawn) [Example 11.78, 3-(6-{[(1R)-1-cyclobutylethyl]amino}-7-[(trans-4-methylcyclohexyl)methyl]-8-[2-(5-methylfuran-2-yl)piperidin-1-yl]-7H-purin-2-yl)-1,2,4-oxadiazol-5(4H)-one]: the IC50 (Table 11) was 37.1 nM.
As to `C[C@@H](Nc1nc(C(=O)O)nc2nc(N3CCOC4(CCCC4)C3)n(Cc3ccc(C(F)(F)F)cc3)c12)C1CCC1` [Example 9.25, 6-{[(1R)-1-cyclobutylethyl]amino}-8-(6-oxa-9-azaspiro[4.5]dec-9-yl)-7-[4-(trifluoromethyl)benzyl]-7H-purine-2-carboxylic acid], the IC50 (Table 9) is 19.4 nM.
